Assay results taken from ChEMBL document CHEMBL1201862, “PubChem BioAssay data set” (2004).
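Cultured in 96-well plates, cells were exposed to test compound for 48 hours across five concentrations. The concentration for 50% growth inhibition is given as GI50.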 Activity calls are given as the source filed them. No stated cut-off is given here; in the data, active = GI50 up to about 1.1 µM and inactive = higher.

Experiments:
Experiment in all cases: NCI tumour cell line growth inhibition, 48 h
A498 = test system: A498
A549 = test system: A549
ACHN = test system: ACHN
CAKI-1 = test system: CAKI-1
DU-145 = test system: DU-145
HCC 2998 = test system: HCC 2998
HCT-15 = test system: HCT-15
HL-60 = test system: HL-60
HOP-62 = test system: HOP-62
HOP-92 = test system: HOP-92
HT-29 = test system: HT-29
K562 = test system: K562
KM12 = test system: KM12
LOX IMVI = test system: LOX IMVI
M14 = test system: M14
MDA-MB-231 = test system: MDA-MB-231
MDA-MB-435 = test system: MDA-MB-435
Malme-3M = test system: Malme-3M
NCI-H226 = test system: NCI-H226
NCI-H23 = test system: NCI-H23
NCI-H460 = test system: NCI-H460
NCI-H522 = test system: NCI-H522
OVCAR-3 = test system: OVCAR-3
OVCAR-4 = test system: OVCAR-4
OVCAR-5 = test system: OVCAR-5
RPMI-8226 = test system: RPMI-8226
SF-268 = test system: SF-268
SF-295 = test system: SF-295
SF-539 = test system: SF-539
SK-MEL-28 = test system: SK-MEL-28
SK-MEL-5 = test system: SK-MEL-5
SN12C = test system: SN12C
SNB-75 = test system: SNB-75
SR = test system: SR
SW-620 = test system: SW-620
TK-10 = test system: TK-10
UACC-257 = test system: UACC-257
UACC-62 = test system: UACC-62
UO-31 = test system: UO-31
786-0 = test system: 786-0
COLO 205 = test system: COLO 205
IGROV-1 = test system: IGROV-1
MCF7 = test system: MCF7
NCI/ADR-RES = test system: NCI/ADR-RES
RXF 393 = test system: RXF 393
SK-MEL-2 = test system: SK-MEL-2
SK-OV-3 = test system: SK-OV-3
T47D = test system: T47D
U-251 = test system: U-251
EKVX = test system: EKVX
HCT-116 = test system: HCT-116
Hs-578T = test system: Hs-578T
MDA-N = test system: MDA-N
OVCAR-8 = test system: OVCAR-8
PC-3 = test system: PC-3
SNB-19 = test system: SNB-19

C[N+](C)(C)CCOP(=O)(O)OP(=O)([O-])OCC1CCC(n2ccc(N)nc2=O)O1 (stereo unspecified)
GI50 (A498): > 80.9 µM (inactive) | GI50 (A549): > 100 µM (inactive) | GI50 (ACHN): > 100 µM (inactive) | GI50 (CAKI-1): > 100 µM (inactive) | GI50 (DU-145): > 100 µM (inactive) | GI50 (HCC 2998): > 100 µM (inactive) | GI50 (HCT-15): > 100 µM | GI50 (HL-60): > 100 µM (inactive) | GI50 (HOP-62): > 100 µM (inactive) | GI50 (HOP-92): > 100 µM (inactive) | GI50 (HT-29): > 100 µM (inactive) | GI50 (K562): > 100 µM (inactive) | GI50 (KM12): > 100 µM (inactive) | GI50 (LOX IMVI): > 100 µM (inactive) | GI50 (M14): > 100 µM (inactive) | GI50 (MDA-MB-231): 77.6 µM (inactive) | GI50 (MDA-MB-435): > 100 µM (inactive) | GI50 (Malme-3M): > 100 µM (inactive) | GI50 (NCI-H226): > 100 µM (inactive) | GI50 (NCI-H23): > 100 µM (inactive) | GI50 (NCI-H460): > 100 µM (inactive) | GI50 (NCI-H522): > 100 µM (inactive) | GI50 (OVCAR-3): > 100 µM (inactive) | GI50 (OVCAR-4): > 100 µM (inactive) | GI50 (OVCAR-5): > 100 µM (inactive) | GI50 (RPMI-8226): > 100 µM (inactive) | GI50 (SF-268): > 100 µM (inactive) | GI50 (SF-295): > 100 µM (inactive) | GI50 (SF-539): > 100 µM (inactive) | GI50 (SK-MEL-28): > 100 µM (inactive) | GI50 (SK-MEL-5): > 100 µM (inactive) | GI50 (SN12C): > 100 µM (inactive) | GI50 (SNB-75): > 100 µM (inactive) | GI50 (SR): > 100 µM (inactive) | GI50 (SW-620): > 100 µM (inactive) | GI50 (TK-10): > 100 µM (inactive) | GI50 (UACC-257): > 100 µM (inactive) | GI50 (UACC-62): > 100 µM (inactive) | GI50 (UO-31): > 100 µM (inactive)

O=P(O)(Cc1ccccc1)OCC1(O)OCC(O)C(O)C1O (stereo unspecified)
GI50 (786-0): > 10 µM (inactive) | GI50 (A549): > 10 µM (inactive) | GI50 (ACHN): > 10 µM (inactive) | GI50 (CAKI-1): > 10 µM (inactive) | GI50 (COLO 205): > 10 µM (inactive) | GI50 (HOP-62): > 10 µM (inactive) | GI50 (IGROV-1): > 10 µM (inactive) | GI50 (K562): > 10 µM (inactive) | GI50 (M14): > 10 µM (inactive) | GI50 (MCF7): > 10 µM (inactive) | GI50 (MDA-MB-435): > 10 µM (inactive) | GI50 (Malme-3M): > 10 µM (inactive) | GI50 (NCI-H23): > 10 µM (inactive) | GI50 (NCI-H460): > 10 µM (inactive) | GI50 (NCI/ADR-RES): > 10 µM (inactive) | GI50 (OVCAR-4): > 10 µM (inactive) | GI50 (OVCAR-5): > 10 µM (inactive) | GI50 (RPMI-8226): > 10 µM (inactive) | GI50 (RXF 393): > 10 µM (inactive) | GI50 (SF-268): > 10 µM (inactive) | GI50 (SK-MEL-28): > 10 µM (inactive) | GI50 (SK-MEL-2): > 10 µM (inactive) | GI50 (SK-MEL-5): > 10 µM (inactive) | GI50 (SK-OV-3): > 10 µM (inactive) | GI50 (SNB-75): > 10 µM (inactive) | GI50 (SR): > 10 µM (inactive) | GI50 (SW-620): > 10 µM (inactive) | GI50 (T47D): > 10 µM (inactive) | GI50 (U-251): > 10 µM (inactive) | GI50 (UACC-62): > 10 µM (inactive)

CC(C)=C=CP(=O)(O)c1ccccc1
GI50 (786-0): > 100 µM (inactive) | GI50 (A498): > 100 µM (inactive) | GI50 (A549): > 100 µM (inactive) | GI50 (ACHN): > 100 µM (inactive) | GI50 (CAKI-1): > 100 µM (inactive) | GI50 (COLO 205): > 100 µM (inactive) | GI50 (DU-145): > 100 µM (inactive) | GI50 (EKVX): > 100 µM (inactive) | GI50 (HCC 2998): > 100 µM (inactive) | GI50 (HCT-116): > 100 µM (inactive) | GI50 (HCT-15): > 100 µM | GI50 (HL-60): > 100 µM (inactive) | GI50 (HOP-62): > 100 µM (inactive) | GI50 (HOP-92): > 100 µM (inactive) | GI50 (HT-29): > 100 µM (inactive) | GI50 (Hs-578T): > 100 µM (inactive) | GI50 (IGROV-1): > 100 µM (inactive) | GI50 (K562): > 100 µM (inactive) | GI50 (KM12): > 100 µM (inactive) | GI50 (LOX IMVI): > 100 µM (inactive) | GI50 (M14): > 100 µM (inactive) | GI50 (MCF7): > 100 µM (inactive) | GI50 (MDA-MB-435): > 100 µM (inactive) | GI50 (MDA-N): > 100 µM (inactive) | GI50 (Malme-3M): > 100 µM (inactive) | GI50 (NCI-H226): > 100 µM (inactive) | GI50 (NCI-H23): > 100 µM (inactive) | GI50 (NCI-H460): > 100 µM (inactive) | GI50 (NCI-H522): > 100 µM (inactive) | GI50 (NCI/ADR-RES): > 100 µM (inactive) | GI50 (OVCAR-3): > 100 µM (inactive) | GI50 (OVCAR-4): > 100 µM (inactive) | GI50 (OVCAR-5): > 100 µM (inactive) | GI50 (OVCAR-8): > 100 µM (inactive) | GI50 (PC-3): > 100 µM (inactive) | GI50 (SF-268): > 100 µM (inactive) | GI50 (SF-295): > 100 µM (inactive) | GI50 (SF-539): > 100 µM (inactive) | GI50 (SK-MEL-28): > 100 µM (inactive) | GI50 (SK-MEL-2): > 100 µM (inactive) | GI50 (SK-MEL-5): > 100 µM (inactive) | GI50 (SK-OV-3): > 100 µM (inactive) | GI50 (SN12C): > 100 µM (inactive) | GI50 (SNB-19): > 100 µM (inactive) | GI50 (SNB-75): > 100 µM (inactive) | GI50 (SR): > 100 µM (inactive) | GI50 (SW-620): > 100 µM (inactive) | GI50 (T47D): > 100 µM (inactive) | GI50 (TK-10): > 100 µM (inactive) | GI50 (U-251): > 100 µM (inactive) | GI50 (UACC-257): > 100 µM (inactive) | GI50 (UACC-62): > 100 µM (inactive)
